# Experiments:
# [1] = Sensory evaluation of the samples prepared in Example 50 (Example 52); type: in vivo, human; design: key to Intensity of Smell: “+” for slight; “++” for moderate; “+++” for very strong
# Experimental: The reaction partner (amino acid, carbohydrate source) were dissolved/suspended in the reaction solvent and transferred into a glass beaker filled with sand pre-heated for at least 30 minutes at the reaction temperature in a drying oven. After the planned reaction time, the vials were transferred into ice water. After cooling to room temperature, sensory analysis and analytical characterization was performed.
# For evaluation of the taste profile, the samples were tested by a panel of four people. 1 trained taster tasted independently the samples first. The taster was asked to describe the taste profile and score 0-5 according to the increasing sugar likeness, bitterness, aftertaste and lingering taste profiles. The first taster was allowed to re-taste, and then make notes for the sensory attributes perceived. Afterwards, another 3 tasters tasted and the attributes were noted and discussed openly to find a suitable description. In case that more than 1 taster disagreed with the results, the tasting was repeated. In some sensory test results (above), the taste rating was expressed by “+”, which means the intensity of the factors is shown by three levels. “+” for slight, “++” for moderate and “+++” for very strong.
# [2] = Sensory analysis of odor/smell, color and taste of Maillard reaction samples at 22 C (Examples 55-62); type: in vivo, human
# Experimental: The reaction partners were dissolved in water and then warmed glycerin (60° C.) was added. […]
# […] After 20 minutes in the ice bath the sealed vials were put in a water bath set to 22° C.
# The odor/smell was assessed independently by 3 persons; the final description was agreed after discussion. […] The taste was assessed independently by 3 persons either in the original samples or after appropriate dilution to achieve relevant concentrations of sugars and steviol-glycosides (i.e. 5-9% SE); the final description was agreed after discussion.
# [3] = as above; type: in vivo, human; remark: listed apart in the source
# [4] = Sensory evaluation of GSGs and SGs, Thaumatin, NHDC and combinations in water (Example 255); type: in vivo, human
# Experimental: 4.5 ppm Thaumatin (equivalent to 10 ppm EPCalin) was dissolved in water. Increasing amounts of NHDC (1-5 ppm) were added to the solution and the sensory properties were evaluated.
# 50 ppm (GSGs and SGs) were dissolved in water. Increasing amounts of NHDC (1-5 ppm) were added to the solution and the sensory properties were evaluated.
# 50 ppm (GSGs and SGs) and 4.5 ppm Thaumatin (equivalent to 10 ppm EPCalin) were dissolved in water. Increasing amounts of NHDC (1-5 ppm) were added to the solution and the sensory properties were evaluated.
# Sweetness intensity was rated on 5-point scale
# Sweetness intensity was rated on a 5-point scale
# [5] = cited from earlier work
# [6] = Assay to test reducing power (active iron-III reduction), Example 64; type: physicochemical; details: 100° C., up to 5.0 hours, diluted 1:10; FIG. 49
# [7] = DPPH radical-scavenging activity, Example 65; type: physicochemical; details: 100° C., up to 5.0 hours, diluted 1:10; FIG. 50
# Experimental: 1 mg 1,1-Diphenyl-2-picrylhydrazyl radical (DPPH)/ml ethanol, dilution to assay concentration were prepared in ethanol (40 μg/mL); Calibration samples were prepared with Ascorbic acid in a concentration of 0-10 μg/mL; as a negative control sample, water was used.
# Samples in aqueous solution were used as such or diluted with water.
# A 0.1 ml sample (or calibration standard) was mixed with 3.9 ml solution of DPPH (100 μMolar) and reacted while protected from light at room temperature for 30 min. Absorbance was determined at 517 nm against ethanol.
# 10 mM of amino acid and/or 10 mM sugar were dissolved in 10 ml 0.1 mM KH2PO4-buffer, pH=7.8.
# The samples were kept at 100° C. in sealed glass vials (Pyrex 15 ml with screw caps) for 0 (before reaction), 2.5 or 5.0 hours. Thereafter the samples were transferred to an ice water bath and cooled down to room temperature. These samples were diluted 1:10 and used for the test assay for anti-oxidant potential.
# [8] = HPLC/DAD/MS detection of MRI (Amadori) products and degradation kinetics of reactants at various pH-conditions; details: reaction of Phe and Xyl
# [9] = Table 52.2, 1 ml water + 9 ml Glycerin, 0.67 h, 100° C.
# [10] = Table 52.5, 1 ml water + 9 ml Glycerin, 2.0 h, 120° C.
# [11] = Table 52.6, Glycerin 10 ml, 100° C., 40 min
# [12] = Table 52.7, Glycerin 10 ml, 1 h, 120° C.
# [13] = Table 56.1, negative controls (no carbohydrate source), 10 ml glycerin/water=9:1, 100° C., 40 minutes
# [14] = Table 57.2, before reaction, 10 ml KH2PO4, pH 7.8
# [15] = Table 52.1, samples of Example 50 after reaction
# [16] = Table 57.3, after reaction, 10 ml KH2PO4, pH 7.8, 2.5 h, 120° C.
molecule,measurement,setting,value
C[C@H](N)C(=O)O [0.1 mMol Ala],Smell,[1]; [9],Agar
same,Taste,[1]; [9],sweet
O=C[C@H](O)[C@H]1OC(=O)[C@@H](O)[C@H]1O [0.1 mMol GlucLac],Smell,[1]; [10],Burnt sugar
N[C@@H](Cc1ccccc1)C(=O)O [0.1 mMol Phe],Intensity of Smell,[1]; [10],+
same,Smell,[1]; [10],"Caramel, burnt"
C=C1C[C@@]23CC[C@H]4[C@@](C)(CCC[C@@]4(C)C(=O)O[C@@H]4O[C@H](CO)[C@@H](O)[C@H](O)[C@H]4O)[C@@H]2CC[C@]1(O[C@@H]1O[C@H](CO)[C@@H](O)[C@H](O[C@@H]2O[C@H](CO)[C@@H](O)[C@H](O)[C@H]2O)[C@H]1O[C@@H]1O[C@H](CO)[C@@H](O)[C@H](O)[C@H]1O)C3 [0.05 mMol Reb-A],Smell,[1]; [9],neutral/unpleasant
same,Taste,[1]; [9],sweet
N[C@@H](Cc1ccccc1)C(=O)O [3.3 mMol Phe],Smell,"[1]; Table 52.6, Glycerin 10 ml, 100° C., 5 min",Slightly bloomy
same,Smell,"[1]; Table 52.6, Glycerin 10 ml, 100° C., 10 min",flowery/bloomy
same,Smell,"[1]; Table 52.6, Glycerin 10 ml, 100° C., 20 min",flowery/bloomy
same,Smell,[1]; [11],flowery/bloomy
same,Smell,[1]; [12],flowery/bloomy
C[C@H](N)C(=O)O [8.91 mg Ala],Taste,[2]; [13],Slightly sweet
OC[C@H]1OC(O)[C@H](O)[C@@H](O)[C@@H]1O (stereo partly drawn) [9 mg Glucose],Smell,[3]; [14],neutral
same,Taste,[3]; [14],Sweet
OC[C@H]1OC(O)[C@H](O)[C@@H](O)[C@@H]1O (stereo partly drawn) [10 mMol Glu],Smell,[1]; [11],Slightly Caramel
same,Smell,[1]; [12],Slightly Caramel
COc1ccc(CCC(=O)c2c(O)cc(O[C@@H]3O[C@H](CO)[C@@H](O)[C@H](O)[C@H]3O[C@@H]3O[C@@H](C)[C@H](O)[C@@H](O)[C@H]3O)cc2O)cc1O [10 ppm NHDC],Sensory evaluation,[4]; combinations of EPCalin and NHDC in water,"Sweet, steep onset of sweetness, no lingering"
N[C@@H](CO)C(=O)O [10.5 mg Ser],Smell,[2]; [13],Lotus flower
same,Taste,[2]; [13],Slightly sweet
O=C(O)[C@@H]1CCCN1 [11.5 mg Pro],Taste,[2]; [13],Slightly sweet
C[C@@H](O)[C@H](N)C(=O)O [11.91 mg Thr],Smell,[2]; [13],"Vanilla, butter"
same,Taste,[2]; [13],Slightly sweet
N[C@@H](CS)C(=O)O [12.1 mg Cys],Smell,[2]; [13],Unpleasant (sulfur)
same,Taste,[2]; [13],Slightly sweet
CC[C@H](C)[C@H](N)C(=O)O [13.11 mg Ile],Smell,[2]; [13],Coffee
same,Taste,[2]; [13],Slightly sweet
NCCCC[C@H](N)C(=O)O [14.7 mg Lys],Smell,[2]; [13],Popcorn
same,Taste,[2]; [13],Slightly sweet
CSCC[C@H](N)C(=O)O [14.9 mg Met],Smell,[2]; [13],Sulfuric
same,Taste,[2]; [13],Slightly sweet
NC(=O)CC[C@H](N)C(=O)O [14.62 mg Gln],Taste,[2]; [13],Slightly sweet
N[C@@H](Cc1ccccc1)C(=O)O [16.5 mg Phe],Smell,"[2]; Example 58, after reaction","Caramel, burnt"
same,Taste,"[2]; Example 58, after reaction, after dilution 1:20",Sweet
same,Smell,"[2]; Example 58, before reaction",Neutral
same,Smell,[2]; [13],"Bloomy, caramel"
same,Taste,[2]; [13],Slightly sweet
same,Smell,[3]; [14],neutral
same,Taste,[3]; [14],No taste
N[C@@H](Cc1ccc(O)cc1)C(=O)O [18.1 mg Tyr],Smell,[2]; [13],neutral
same,Taste,[2]; [13],Slightly sweet
N[C@@H](Cc1c[nH]c2ccccc12)C(=O)O [20.42 mg Try],Smell,[2]; [13],Unpleasant (fecal)
same,Taste,[2]; [13],Slightly sweet
N[C@@H](CCC(=O)O)C(=O)O [167 mMol Glu],Smell,[1]; [15],caramel
same,Taste,[1]; [15],Sweet
O=C[C@H](O)[C@@H](O)[C@H](O)[C@H](O)C(=O)O [Glucuronic Acid],Smell,[3]; [16],burnt bread
same,Taste,[3]; [16],Bitter
O=C1O[C@@H]2[C@@H](O)[C@H](O)O[C@@H]2C1O (stereo partly drawn) [Glucuronolactone],Smell,[3]; [16],Burnt sugar
same,Taste,[3]; [16],Bitter
"CC1(C)[C@@H](O[C@H]2O[C@H](C(=O)O)[C@@H](O)[C@H](O)[C@H]2O[C@@H]2O[C@H](C(=O)O)[C@@H](O)[C@H](O)[C@H]2O)CC[C@]2(C)[C@H]3C(=O)C=C4[C@@H]5C[C@@](C)(C(=O)O)CC[C@]5(C)CC[C@@]4(C)[C@]3(C)CC[C@@H]12 [Glycyrrhizin, reference compound]",times sweeter than sucrose (sugar),[5]; sweetness depends on the tested concentration compared with sucrose,30 to 50 times
"COc1ccc(CCC(=O)c2c(O)cc(O[C@@H]3O[C@H](CO)[C@@H](O)[C@H](O)[C@H]3O[C@@H]3O[C@@H](C)[C@H](O)[C@@H](O)[C@H]3O)cc2O)cc1O [NHDC, Neohesperidin dihydrochalcone, reference compound]","sensory properties (sweetness, onset, mouth-feel, lingering)","[4]; in water, 4.5 ppm Thaumatin and/or 50 ppm GSGs and SGs with NHDC",long lasting lingering
N[C@@H](Cc1ccccc1)C(=O)O [Phe 60 mMol],Smell,[1]; [15],flowery/bloomy-caramel
same,Taste,[1]; [15],Sweet
N[C@H](Cc1ccccc1)C(=O)O [Phe],Taste,[3]; [16],sweet
"C=C1C[C@@]23CC[C@H]4[C@@](C)(CCC[C@@]4(C)C(=O)O[C@@H]4O[C@H](CO)[C@@H](O)[C@H](O)[C@H]4O)[C@@H]2CC[C@]1(O[C@@H]1O[C@H](CO)[C@@H](O)[C@H](O[C@@H]2O[C@H](CO)[C@@H](O)[C@H](O)[C@H]2O)[C@H]1O[C@@H]1O[C@H](CO)[C@@H](O)[C@H](O)[C@H]1O)C3 [Reb-A, Rebaudioside A]",active iron-III reduction (anti-oxidant properties),[6],substantial anti-oxidant properties
same,radical scavenging properties (anti-oxidant properties),[7],substantial anti-oxidant properties
O=C[C@H](O)[C@@H](O)[C@H](O)CO [Xyl],% degradation,[8]; pH = 5.5,4.59%
same,% degradation,[8]; pH = 7.0,6.3%
same,% degradation,[8]; pH = 8.5,9.47%
"Miraculin: A protein that does not taste sweet by itself but modifies taste receptors to make sour things taste sweet temporarily (protein, UniProt P13087 30-220, looked up) Miraculin: DSAPNPVLDIDGEKLRTGTNYYIVPVLRDHGGGLTVSATTPNGTFVCPPRVVQTRKEVDHDRPLAFFPENPKEDVVRVSTDLNINFSAFMPCRWTSSTVWRLDKYDESTGQYFVTIGGVKGNPGPETISSWFKIEEFCGSGFYKLVFCPTVCGSCKVKCGDVGIYIDQKGRRRLALSDKPFAFEFNKTVYF",Notes (sweet taste),[5]; in vivo,A protein that does not taste sweet by itself
